Results taken from patent publication US11752105B2, “Spray drying process with continuous preparation of spray solution” (Hovione Scientia Limited, priority 2018, dated 2023).

Test: Continuous solution preparation: suspension passed through series of five micro-reactors (continuous dissolution)
Type: physicochemical
Conditions: solvent H2O; concentration 0.3 % wt
Description: The resulting suspension was continuously passed through a series of five micro-reactors with microchannels having 500 micron diameter by means of an intensifier pump (MicroDeBEE) at a pressure of 1862 bar. […] The same experiment was repeated with the same setup for other pharmaceutical excipients and solvents. Trihalose is crystalline form and was used as a model for crystalline molecules to mimic API's.

## CC(C)C[C@H](N)C(=O)O [L-Leucine]
  Continuous dissolution: YES
